Results published in article PMC4176650 (BioMed Research International, 2014).
Entries after “also recorded” stand apart in the source; their conditions may differ. Like-named read-outs stand apart in the source and are kept apart here.

Columns and labels:
Jack bean urease = Jack bean urease (Canavalia ensiformis, UniProt P07374); assay: biochemical; conditions: for Type of inhibition / Kmapp / Vmaxapp: Urease (JB); for Kmapp: Km without inhibitor 2.5 mM; for Vmaxapp: Vmax without inhibitor 105
Protocol: (§1) Reaction mixtures comprising 25 μL of enzyme (Jack bean and Bacillus pasteurii ureases) solution and 55 μL of buffers containing urea (2–24 mM for jack bean and Bacillus pasteurii ureases) were incubated with 5 μL of test compounds at 30°C for 4.15 min in 96-well plates. The increasing absorbance at 560 nm was measured after 10 min, using a microplate reader (Molecular Devices, USA). All reactions were performed in triplicate in a final volume of […]. The results (change in absorbance per min.) were processed by using SoftMax Pro software (Molecular Devices, USA). All the assays were performed at pH 6.8 (3 mM sodium phosphate buffer) and 7 μg of phenol red per mL as indicator [10]. Percentage inhibitions were calculated from the formula 100 − (ODtestwell/ODcontrol) × 100. Thiourea was used as the standard inhibitor of urease.
(§2) The concentration of tested compounds that inhibited the hydrolysis of substrates (Jack bean urease and Bacillus pasteurii ureases) by 50% (IC50) was determined by monitoring the effect of various concentrations of the compounds in the assays on the inhibition values. The IC50 (inhibitor conc. that inhibits 50% activity of both enzymes) values were then calculated using the EZ-Fit Enzyme Kinetics program (Perrella Scientific Inc., Amherst, USA).
(§3) Dissociation constant/inhibition constant (K i) were determined by the interpretation of Dixon plot. Lineweaver-Burk plot and their secondary replots using initial velocities obtained over a substrate concentration range between 2.0 and 24 mM urea for J.B. and B.P. ureases, respectively. Nonlinear regression equations were used to determine the values of K I, K m, and V max in the Lineweaver-Burk plot and Dixon plots. The K i values dissociation constant/inhibition constant of J.B. urease-inhibitor or B.P. urease-inhibitor complex into free J.B. urease or B.P. urease and inhibitor was determined graphically by Dixon plot and Lineweaver-Burk plots.

[1] = test system: Lemna aequinoctialis Welv.; assay: Lemna phytotoxicity assay; conditions: seven days
Protocol: The assay was performed according to the modified protocol of Bremner. […] Sterilized conical flasks were inoculated with compounds with desired concentrations prepared from the stock solution and allowed to evaporate overnight. Each flask was inoculated with 20 mL of sterilized E-medium and ten Lemna aequinoctialis Welv. each containing a rosette of three fronds. Other flasks were supplemented with methanol serving as negative control and reference inhibitor, that is, phosphoroamide (a urease inhibitor already in commercial use) serving as positive control. The treatments were replicated three times and the flasks incubated at 30°C Fisons Fi-Totron 600 H growth cabinet for seven days, 9000 lux light intensity, 56 ± 10 rh (relative humidity), and 12 h day length. Growth of Lemna aequinocitalis in compound containing flask was determined by counting the number of fronds per dose and growth inhibition calculated with reference to negative control.

[2] = target: Bacillus pasteurii urease (Sporosarcina pasteurii, UniProt P41020); assay: Urease assay and inhibition kinetics, Bacillus pasteurii urease; format: biochemical; design: Vmaxapp: unit not given here; conditions: for Kmapp: Km without inhibitor 5.1 mM; for Vmaxapp: Vmax without inhibitor 160
Protocol: as §1, §2, §3

[3] = Viability of human neutrophils (WST-1); format: cell-based; conditions: isolated human neutrophils; human neutrophils 1 × 10^7 cells/mL; conc. 200 µg/mL
Protocol: Heparinized fresh venous blood was drawn from healthy volunteers in a local blood bank and the neutrophils were isolated by developed method of McLaughlin et al.. 45 The whole blood was mixed with Ficoll-Paque (Pharmacia Biotech Amersham, Uppsala). After sedimentation the unwanted red blood cells (RBCs) were layered as a buffy coat on the cushion of Ficoll (3.0 mL). It was then centrifuged for 30 min. at 1500 rpm, and supernatant was discarded. Further treated with hypotonic ammonium chloride solution (0.83%) to lyse RBCs. The preparation was then centrifuged and the neutrophils were washed with Modified Hank's Solution (MHS) and resuspended at a concentration of 1 × 10^7 cells/mL.
Isolated human neutrophils (1 × 10^7 cells/mL) were incubated first with test compounds for 30 min., and then after the addition of 0.25 mM WST-1 (Dojindo Laboratories Kumamoto, Japan) in water bath shaker at 37°C [18, 19]. After 3 hrs incubation, change in the absorbance was measured at 450 nm in 96-well plate by using microplate reader Spectra MAX 340 (Molecular Devices, CA, USA). The OD is the mean of the five experimental replicates. The percentage (%) cell viability was calculated by using the following formula: (1) Percentage (%) viability of cells =[…].

[4] = Urease (BP), Dixon plot and secondary Lineweaver-Burk plot, pH 6.8, 30°C, read-out: Ki (µM) ± SEM

Bacillus pasteurii urease, sequence (P41021 whole entry): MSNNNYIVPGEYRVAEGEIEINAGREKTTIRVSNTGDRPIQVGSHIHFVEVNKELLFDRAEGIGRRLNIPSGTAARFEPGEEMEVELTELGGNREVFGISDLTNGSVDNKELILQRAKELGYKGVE
Bacillus pasteurii urease, sequence (P41022 whole entry, further chain): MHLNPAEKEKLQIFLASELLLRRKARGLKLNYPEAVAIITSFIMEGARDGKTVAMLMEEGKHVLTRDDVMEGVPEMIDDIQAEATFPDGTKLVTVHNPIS
Bacillus pasteurii urease, sequence (P41020 whole entry): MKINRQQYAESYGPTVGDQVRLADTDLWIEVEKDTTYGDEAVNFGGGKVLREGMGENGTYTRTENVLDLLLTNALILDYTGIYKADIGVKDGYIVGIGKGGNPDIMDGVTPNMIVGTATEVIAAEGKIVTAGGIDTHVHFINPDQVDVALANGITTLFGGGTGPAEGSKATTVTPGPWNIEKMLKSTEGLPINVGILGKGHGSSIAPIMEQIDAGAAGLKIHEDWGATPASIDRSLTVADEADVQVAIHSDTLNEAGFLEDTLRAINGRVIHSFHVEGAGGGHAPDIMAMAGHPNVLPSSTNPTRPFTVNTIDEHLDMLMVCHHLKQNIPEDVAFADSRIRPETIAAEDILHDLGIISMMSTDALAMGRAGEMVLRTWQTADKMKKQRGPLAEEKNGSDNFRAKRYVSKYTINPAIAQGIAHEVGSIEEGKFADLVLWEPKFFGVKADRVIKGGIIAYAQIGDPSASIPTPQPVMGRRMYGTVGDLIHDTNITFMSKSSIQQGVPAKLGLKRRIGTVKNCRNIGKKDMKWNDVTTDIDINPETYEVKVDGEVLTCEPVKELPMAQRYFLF
Jack bean urease, sequence (P07374 whole entry, looked up): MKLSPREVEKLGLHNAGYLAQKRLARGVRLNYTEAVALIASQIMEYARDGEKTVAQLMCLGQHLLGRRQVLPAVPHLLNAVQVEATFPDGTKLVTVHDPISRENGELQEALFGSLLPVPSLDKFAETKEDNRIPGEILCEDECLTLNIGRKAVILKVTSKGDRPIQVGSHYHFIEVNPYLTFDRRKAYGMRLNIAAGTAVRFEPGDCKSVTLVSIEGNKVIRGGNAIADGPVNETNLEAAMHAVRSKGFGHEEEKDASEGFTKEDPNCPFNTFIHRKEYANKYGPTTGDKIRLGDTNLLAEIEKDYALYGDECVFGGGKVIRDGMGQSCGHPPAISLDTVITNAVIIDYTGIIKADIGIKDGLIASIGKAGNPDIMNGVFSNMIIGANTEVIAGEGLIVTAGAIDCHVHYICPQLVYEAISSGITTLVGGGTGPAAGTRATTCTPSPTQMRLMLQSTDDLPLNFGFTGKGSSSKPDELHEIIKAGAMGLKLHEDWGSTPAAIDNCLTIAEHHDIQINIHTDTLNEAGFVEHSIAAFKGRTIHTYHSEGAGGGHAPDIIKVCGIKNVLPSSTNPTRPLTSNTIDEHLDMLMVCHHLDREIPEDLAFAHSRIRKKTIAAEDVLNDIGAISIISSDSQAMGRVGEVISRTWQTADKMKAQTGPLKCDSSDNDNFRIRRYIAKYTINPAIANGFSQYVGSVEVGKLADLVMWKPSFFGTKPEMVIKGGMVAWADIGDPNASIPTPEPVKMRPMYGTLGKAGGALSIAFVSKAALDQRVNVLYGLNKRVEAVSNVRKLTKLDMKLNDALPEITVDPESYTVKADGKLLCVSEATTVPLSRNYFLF

Structure (SMILES)	Ki (Jack bean urease) [µM]	Type of inhibition (Jack bean urease)	Kmapp (Jack bean urease) [mM]	Vmaxapp (Jack bean urease)	Lemna Welv. phytotoxicity (growth inhibition) ([1]; conc. of compound 10 μg/mL)	Lemna Welv. phytotoxicity (growth inhibition) ([1]; conc. of compound 100 μg/mL)	Type of inhibition ([2]; Urease (BP))	Ki [2, 4] [µM]	Kmapp ([2]; Urease (BP)) [mM]	Vmaxapp ([2]; Urease (BP))	viability at 200 µg/mL [3] [%]	Lemna Welv. phytotoxicity (growth inhibition) ([1]; conc. of compound 1000 μg/mL)	Ki [2] [µM]	selectivity between B.P. urease and J.B. urease ([2]; comparison of potency against both ureases)
C/C=C/C(c1c(O)c2ccccc2oc1=O)c1c(O)c2ccccc2oc1=O [compound 4]	65.9	Competitive	9.1	105	38.23	100	Uncompetitive	48.3 ± 0.01	3.8	101.0	13.2 ± 4.2			
CCCCC(c1c(O)c2ccccc2oc1=O)c1c(O)c2ccccc2oc1=O [compound 6]	75 ± 0.1	Competitive	9.5	106	10.60	42.50	competitively; also recorded: Competitive	27.5	13.0	159.2	45.5 ± 4	69.6		
O=c1oc2ccccc2c(O)c1C(c1c(O)c2ccccc2oc1=O)c1c[nH]c2ccccc12 [compound 9]	62.9 ± 0.5	Competitive	11.6	108	41.66	50.00	Uncompetitive	59.5 ± 0.2	3.2	97.2	100 ± 5.2			
COc1cccc(C(c2c(O)c3ccccc3oc2=O)c2c(O)c3ccccc3oc2=O)c1 [compound 1]	19.3 ± 0.1	Competitive	5.6	109	9.9	60.3	competitively; also recorded: Competitive	15.5 ± 0.2	11.3	159.3	67.5 ± 3.1	80		
O=c1oc2ccccc2c(O)c1C(c1ccncc1)c1c(O)c2ccccc2oc1=O [compound 2]	71 ± 0.3	Competitive	7.7	106	6.5	33	Noncompetitive	51.3 ± 0.4	5.2	98.0	85.1 ± 2.5	52.7		
CC(c1c(O)c2ccccc2oc1=O)c1c(O)c2ccccc2oc1=O [compound 3]	59.4 ± 0.1	Competitive	8.3	108	6.4	22.5	Uncompetitive	53 ± 0.01	4.0	115.3	100 ± 1	54.8		
O=c1oc2ccccc2c(O)c1Cc1c(O)c2ccccc2oc1=O [compound 7]	15 ± 0.1	Competitive	7.6	102			competitively; also recorded: Competitive		9.9	162.5	100 ± 4.3		13.3 ± 0.2	
O=c1oc2ccccc2c(O)c1C(c1cccnc1)c1c(O)c2ccccc2oc1=O [compound 10]	68 ± 0.1	Competitive	10.6	105	23.8	47.6	competitively	63.6 ± 0.2	10.3		95.4 ± 5.2	57.14		
O=c1oc2ccccc2c(O)c1C(/C=C/c1ccccc1)c1c(O)c2ccccc2oc1=O [compound 8]	21.5	Competitive	7.5	104	13.00	22.99	competitively; also recorded: Competitive	19 ± 0.1	7.7	161.7	100 ± 5.2	70.0		
O=c1oc2ccccc2c(O)c1C(c1cc[nH]c1)c1c(O)c2ccccc2oc1=O [compound 5]	53.3 ± 0.4	Competitive	7.8	103	9.00	25.00	Uncompetitive	68.1 ± 0.3	3.9	93.7	100 ± 0.5	61.4		selective for J.B. uraese
